Where two headings read alike, the source gives them in different places.
Tests used:
E. coli = E. coli MMX 102 (ATCC 25922); cited from earlier work
S. aureus = test: Broth microdilution MIC (Example 5); format: cell-based, Staphylococcus aureus; details: Staphylococcus aureus
How it was run: (§1)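 Susceptibility testing used automated two-fold serial dilution in microdilution plates per CLSI. Each well received a standardized inoculum from a 0.5 McFarland suspension, with an unmedicated column as growth control.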

C. parapsilosis = test: Broth microdilution MIC, yeast (Example 5); format: cell-based; details: Lodderomyces parapsilosis
Experimental: (§2) Test and Comparator Agents: The test agents were stored at room temperature until assayed. All test agents were suspended and diluted in 100% dimethylsulfoxide (DMSO), and were ultimately tested at a final concentration of 0.06-64 μg/mL. The stock solutions were allowed to stand for at least 1 hr prior to use to auto-sterilize.
(§3) The susceptibility of yeast isolates was determined by broth microdilution in RPMI medium (HyClone Laboratories, Logan, UT; Lot No. AZC184041B) buffered with 0.165 M MOPS (Calbiochem, Billerica, MA; Lot No. 2694962). The pH of the medium was adjusted to 7.0 with 1 N NaOH, sterile filtered using a 0.2 μm PES filter, and stored at 4° C. until used.
(§4) Broth Microdilution MC Testing (Aerobic Bacteria and Yeast): The broth microdilution assay method employed for the susceptibility testing of aerobic bacteria (excluding N. gonorrhoeae which was evaluated by agar dilution) and yeast essentially followed the procedures described by CLSI (3, 4, 7, 8) and employed automated liquid handlers to conduct serial dilutions and liquid transfers. Automated liquid handlers included the Multidrop 384 (Labsystems, Helsinki, Finland) and Biomek 2000 (Beckman Coulter, Fullerton CA). The wells in columns 2-12 in standard 96-well microdilution plates (Costar 3795) were filled with 150 μl of the correct diluent. These would become the ‘mother plates’ from which ‘daughter’ or test plates would be prepared. The drugs (300 μL at 40× the desired top concentration in the test plates) were dispensed into the appropriate well in Column 1 of the mother plates. The Biomek 2000 was used to make serial two-fold dilutions through Column 11 in the “mother plate”. The wells of Column 12 contained no drug and ultimately served as the organism growth control wells.
(§5) The daughter plates were loaded with 185 μL per well of the appropriate test media using the Multidrop 384. The daughter plates were prepared using the Biomek FX which transferred 5 μL of drug solution from each well of a mother plate to the corresponding well of the correct daughter plate in a single step.
(§6) A standardized inoculum of each organism was prepared per CLSI methods (3, 7). Isolated colonies of each test isolate were picked from the primary plate and a suspension was prepared to equal a 0.5 McFarland turbidity standard. Standardized suspensions were then diluted […] (1:100 for yeast, 1:20 for bacteria). After dilution, the inoculum suspensions were then transferred to compartments of sterile reservoirs divided by length (Beckman Coulter), and the Biomek 2000 was used to inoculate all plates. Daughter plates were placed on the Biomek 2000 in reverse orientation so that plates were inoculated from low to high drug concentration.
(§7) The Biomek 2000 delivered 10 μL of standardized inoculum into each well of the appropriate daughter plate for an additional 1:20 dilution. […] The final concentration of DMSO (if used as a solvent) in the test well was 2.5%.
(§8) Plates were stacked 4 high, covered with a lid on the top plate, placed into plastic bags, and incubated at 35° C. for approximately 24-48 hr for all yeast isolates and 16-24 hr for aerobic bacteria. Plates were viewed from the bottom using a plate viewer. […] MIC endpoints for the test agents and control compounds were read per CLSI criteria (3, 7).

C. albicans = test: Broth microdilution MIC, yeast (Example 5); format: cell-based; details: Candida albicans, Sensitive
Experimental: as §2, §3, §4, §5, §6, §7, §8

C. tropicalis = test: Broth microdilution MIC, yeast (Example 5); format: cell-based; details: Candida tropicalis, FLUR
Experimental: as §2, §3, §4, §5, §6, §7, §8

C. glabrata = test: Broth microdilution MIC, yeast (Example 5); format: cell-based; details: Nakaseomyces glabratus, FLUR
Experimental: as §2, §3, §4, §5, §6, §7, §8

P. aeruginosa = test: Broth microdilution MIC (Example 5); format: cell-based, Pseudomonas aeruginosa; details: Pseudomonas aeruginosa
Experimental: Test and Comparator Agents: The test agents were stored at room temperature until assayed. […] The stock solutions were allowed to stand for at least 1 hr prior to use to auto-sterilize.
TestMedia: Test media were prepared and stored in accordance with guidelines from CLSI (4, 6, 7).
Broth Microdilution MC Testing (Aerobic Bacteria and Yeast): The broth microdilution assay method employed for the susceptibility testing of aerobic bacteria (excluding N. gonorrhoeae which was evaluated by agar dilution) and yeast essentially followed the procedures described by CLSI (3, 4, 7, 8) and employed automated liquid handlers to conduct serial dilutions and liquid transfers. […] These would become the ‘mother plates’ from which ‘daughter’ or test plates would be prepared. The drugs (300 μL at 40× the desired top concentration in the test plates) were dispensed into the appropriate well in Column 1 of the mother plates. The Biomek 2000 was used to make serial two-fold dilutions through Column 11 in the “mother plate”. The wells of Column 12 contained no drug and ultimately served as the organism growth control wells.
The daughter plates were prepared using the Biomek FX which transferred 5 μL of drug solution from each well of a mother plate to the corresponding well of the correct daughter plate in a single step.
as §6
The Biomek 2000 delivered 10 μL of standardized inoculum into each well of the appropriate daughter plate for an additional 1:20 dilution.
as §8

S. pneumoniae = test: Broth microdilution MIC (Example 5); format: cell-based; details: Streptococcus pneumoniae
How it was run: as §1

[1] = ATCC 29213 / MSSA, S. aureus MMX 101 (ATCC 29213), QC, MSSA
[2] = 24 h, C. parapsilosis MMX 7370, FLUR
[3] = 24 h, C. parapsilosis MMX 7555, FLUR
[4] = 48 h, C. parapsilosis MMX 7370, FLUR
[5] = 48 h, C. parapsilosis MMX 7555, FLUR
[6] = ATCC22019, 24 h, C. parapsilosis MMX 2323 (ATCC 22019), QC, 24 hr
[7] = ATCC22019, 48 h, C. parapsilosis MMX 2323 (ATCC 22019), QC, 48 hr
[8] = ATCC27853, P. aeruginosa MMX 103 (ATCC 27853), QC, read-out: MIC
[9] = ATCC49619, S. pneumoniae MMX 6837 (ATCC 49619), QC
[10] = S. pneumoniae MMX 880, LevR SXTR CCR EryR PenR
[11] = S. pneumoniae MMX 937, MemR SXTR CCR EryR PenR
[12] = S. pneumoniae MMX 3959, CCR EryR
[13] = S. pneumoniae MMX 5440, MemR SXTR CCR EryR PenR
[14] = S. pneumoniae MMX 5445, MemR SXTR CCR EryR PenR
[15] = S. pneumoniae MMX 8133, MemR SXTR CCR EryR PenR

Structure (SMILES): CC(C)(O/N=C(\C(=O)N[C@@H]1C(=O)N2C(C(=O)[O-])=C(C[n+]3ccccc3)CS[C@H]12)c1csc(N)n1)C(=O)O [Ceftazidime]
- CLSI QC range of MIC (E. coli): (0.06-0.5) μg/mL

Structure (SMILES): CC(S)C(C)S.[Bi] (stereo not drawn) [MB-6, bismuth-2,3-butanedithiol]
- MIC (S. aureus; [1]): ≤ 0.06 mg/L
- MIC (S. aureus; MRSA, S. aureus MMX 5373): ≤ 0.06 mg/L
- MIC (S. aureus; MRSA, S. aureus MMX 6311): ≤ 0.06 mg/L
- MIC (S. aureus; MRSA, S. aureus MMX 9204): ≤ 0.06 mg/L
- MIC (S. aureus; MRSA, S. aureus MMX 9205): ≤ 0.06 mg/L
- MIC (C. parapsilosis; [2]): 0.25 mg/L
- MIC (C. parapsilosis; [3]): 0.25 mg/L
- MIC (C. parapsilosis; [4]): 0.5 mg/L
- MIC (C. parapsilosis; [5]): 0.5 mg/L
- MIC (C. parapsilosis; [6]): 0.5 mg/L
- MIC (C. parapsilosis; [7]): 1 mg/L
- MIC (C. albicans; 24 h, C. albicans MMX 7055): 2 mg/L
- MIC (C. albicans; 48 h, C. albicans MMX 7039): 2 mg/L
- MIC (C. albicans; 48 h, C. albicans MMX 7055): 2 mg/L
- MIC (C. tropicalis; 24 h, C. tropicalis MMX 7247): 4 mg/L
- MIC (C. tropicalis; 24 h, C. tropicalis MMX 7248): 4 mg/L
- MIC (C. tropicalis; 24 h, C. tropicalis MMX 7360): 2 mg/L
- MIC (C. tropicalis; 48 h, C. tropicalis MMX 7247): 4 mg/L
- MIC (C. tropicalis; 48 h, C. tropicalis MMX 7248): 8 mg/L
- MIC (C. tropicalis; 48 h, C. tropicalis MMX 7360): 2 mg/L
- MIC (C. glabrata; 24 h, C. glabrata MMX 7086): 0.5 mg/L
- MIC (C. glabrata; 24 h, C. glabrata MMX 7318): 0.25 mg/L
- MIC (C. glabrata; 48 h, C. glabrata MMX 7086): 1 mg/L
- MIC (C. glabrata; 48 h, C. glabrata MMX 7318): 0.5 mg/L
- MIC (P. aeruginosa; [8]): 1 mg/L
- MIC (S. pneumoniae; [9]): 0.5 mg/L
- MIC (S. pneumoniae; [10]): 0.5 mg/L
- MIC (S. pneumoniae; [11]): 8 mg/L
- MIC (S. pneumoniae; [12]): 1 mg/L
- MIC (S. pneumoniae; [13]): 0.5 mg/L
- MIC (S. pneumoniae; [14]): 0.5 mg/L
- MIC (S. pneumoniae; [15]): 0.5 mg/L

Structure (SMILES): C[C@@H](O)[C@H]1C(=O)N2C(C(=O)O)=C(S[C@@H]3CN[C@H](C(=O)N(C)C)C3)[C@H](C)[C@H]12 [Meropenem]
- CLSI QC range of MIC (E. coli): (0.008-0.06) μg/mL

Structure (SMILES): OCC(S)CS.[Bi] (stereo not drawn) [MB-2B, bismuth-2,3-dimercaptopropanol]
- MIC (S. aureus; [1]): 0.5 mg/L
- MIC (S. aureus; MRSA, S. aureus MMX 5373): ≤ 0.06 mg/L
- MIC (S. aureus; MRSA, S. aureus MMX 6311): ≤ 0.06 mg/L
- MIC (S. aureus; MRSA, S. aureus MMX 9203): 0.25 mg/L
- MIC (S. aureus; MRSA, S. aureus MMX 9204): ≤ 0.06 mg/L
- MIC (S. aureus; MRSA, S. aureus MMX 9205): ≤ 0.06 mg/L
- MIC (S. aureus; MRSA, read-out: MIC values against MRSA, MRSA isolates (Table 5)): < 0.06 mg/L
- MIC (C. parapsilosis; [2]): 0.5 mg/L
- MIC (C. parapsilosis; [3]): 0.25 mg/L
- MIC (C. parapsilosis; [4]): 0.5 mg/L
- MIC (C. parapsilosis; [5]): 1 mg/L
- MIC (C. parapsilosis; [6]): 0.5 mg/L
- MIC (C. parapsilosis; [7]): 1 mg/L
- MIC (C. albicans; 24 h, C. albicans MMX 7039): 2 mg/L
- MIC (C. albicans; 24 h, C. albicans MMX 7055): 1 mg/L
- MIC (C. albicans; 48 h, C. albicans MMX 7039): 2 mg/L
- MIC (C. albicans; 48 h, C. albicans MMX 7055): 4 mg/L
- MIC (C. tropicalis; 24 h, C. tropicalis MMX 7247): 2 mg/L
- MIC (C. tropicalis; 24 h, C. tropicalis MMX 7248): 4 mg/L
- MIC (C. tropicalis; 24 h, C. tropicalis MMX 7360): 1 mg/L
- MIC (C. tropicalis; 48 h, C. tropicalis MMX 7247): 4 mg/L
- MIC (C. tropicalis; 48 h, C. tropicalis MMX 7248): 4 mg/L
- MIC (C. tropicalis; 48 h, C. tropicalis MMX 7360): 2 mg/L
- MIC (C. glabrata; 24 h, C. glabrata MMX 7086): 0.5 mg/L
- MIC (C. glabrata; 24 h, C. glabrata MMX 7318): 0.25 mg/L
- MIC (C. glabrata; 48 h, C. glabrata MMX 7086): 1 mg/L
- MIC (C. glabrata; 48 h, C. glabrata MMX 7318): 1 mg/L
- MIC (P. aeruginosa; [8]): 8 mg/L
- MIC (P. aeruginosa; P. aeruginosa MMX 1381, MDR): 2 mg/L
- MIC (P. aeruginosa; P. aeruginosa MMX 2562, MDR): 4 mg/L
- MIC (P. aeruginosa; P. aeruginosa MMX 3991, MDR): 8 mg/L
- MIC (P. aeruginosa; P. aeruginosa MMX 4654, IMP-7): 8 mg/L
- MIC (P. aeruginosa; P. aeruginosa MMX 4697, VIM-2): 16 mg/L
- MIC (S. pneumoniae; [9]): 8 mg/L
- MIC (S. pneumoniae; [10]): 8 mg/L
- MIC (S. pneumoniae; [11]): 1 mg/L
- MIC (S. pneumoniae; [12]): 8 mg/L
- MIC (S. pneumoniae; [13]): 8 mg/L
- MIC (S. pneumoniae; [14]): 8 mg/L
- MIC (S. pneumoniae; [15]): 8 mg/L
- MIC (S. pneumoniae; read-out: MIC values across isolates, pneumococci (Table 6)): 1 to 8 mg/L
